From patent US20060199801A1, “Heterobicyclic compounds used as fungicides” (priority 2003, published 2006)

Experiments:
Alternaria solani = assay: Activity against early blight of tomato caused by Alternaria solani, protective use; format: in vivo; conditions: 250 ppm spray, tomato cultivar Large Fruited St. Pierre, visual rating after 5 days, untreated 80%
Protocol: (§1) For use examples 1 and 2, the active compounds were formulated as a stock solution 15 with 0.25% by weight of active compound in acetone or dimethyl sulfoxide (DMSO). 1% by weight of the emulsifier Uniperol® EL (wetting agent having emulsifying and dispersant action based on ethoxylated alkylphenols) was added to this solution, and the mixture was diluted with water to the desired concentration.
Activity Against Early Blight of Tomato Caused by Alternaria solani, Protective Use
Leaves of potted plants of the tomato cultivar “Large Fruited St. Pierre” were sprayed to runoff point with an aqueous suspension having the concentration of active compound stated below. The next day, the leaves were infected with an aqueous spore suspension of Alternaria solani in a 2% biomalt solution having a density of 0.17×10^6 spores/ml. The plants were then placed in a water-vapor-saturated chamber at 20-22° C. After 5 days, the blight on the untreated but infected control plants had developed to such an extent that the infection could be determined visually in %.

Plasmopara viticola = assay: Activity against Peronospora of grapevines caused by Plasmopara viticola, protective use; format: in vivo; conditions: 250 ppm spray, grapevine cultivar Müller-Thurgau, visual rating of leaf undersides, untreated 90%
Protocol: as §1
Activity against Peronospora of Grapevines caused by Plasmopara viticola, Protective Use
Leaves of potted grapevines of the cultivar “Müller-Thurgau” were sprayed to runoff point with an aqueous suspension having the concentration of active compound stated below. The next day, the undersides of the leaves were inoculated with an aqueous zoospore suspension of Plasmopara viticola. The grapevines were then initially placed in a water-vapor-saturated chamber at 24° C. for 48 hours and then in a greenhouse at 20-30° C. for 5 days. After this period of time, the plants were again placed in a humid chamber for 16 hours to promote sporangiophore eruption. The extent of the development of the infection on the undersides of the leaves was then determined visually.

[1] = tested on: Erysiphe [syn. Blumeria] graminis forma specialis tritici; assay: Activity against mildew of wheat caused by Erysiphe [syn. Blumeria] graminis forma specialis tritici, protective use; format: in vivo; conditions: 250 ppm spray, wheat seedlings cultivar Newton, visual rating after 7 days, % of entire leaf area, untreated 90%
Protocol: Activity Against Mildew of Wheat Caused by Erysiphe [syn. Blumeria] graminis form a Specialis tritici, Protective Use
Leaves of wheat seedlings, grown in pots, of the cultivar “Newton” were sprayed to runoff point with an aqueous suspension having the concentration of active compound stated below. The suspension or emulsion was prepared from a stock solution comprising 5% of active compound, 94% of cyclohexanone and 1% of emulsifier (Tween 20) by dilution with water. 3-5 hours after the spray coating had dried on, the […] of wheat (Erysiphe [syn. Blumeria] graminis form a specialis. tritici). The test plants were then placed in a greenhouse at 20-24° C. and 60-90% relative atmospheric humidity. After 7 days, the extent of the mildew development was determined visually in % infection of the entire leaf area.

Row | melting point [°C] | Structure (SMILES) | Infection [%] at 250 ppm (Alternaria solani) [%] | Infection [%] at 250 ppm (Plasmopara viticola) [%] | Infection [%] at 250 ppm [1] [%]
1 |  | Cc1ccc(-c2c(C)nn3cnnc3c2CC(C)C)c(F)c1 [Example 7] | 20 |  | 
2 |  | Cc1nc2c(C#N)ncn2c(N[C@H](C)C(C)C)c1-c1c(F)cc(F)cc1F [Example 36] | 7 |  | 
3 |  | CCCC(C)c1c(-c2ccc(F)cc2F)c(C)nn2cnnc12 (single isomer, unassigned) [Example 18] |  | 10 | 7
4 |  | Cc1nn2cnnc2c(CC(C)C)c1-c1ccc(F)cc1F [Example 6] |  | 0 | 
5 |  | CCCCc1c(-c2ccc(F)cc2C)c(C)nn2cnnc12 [Example 3] | 25 | 0 | 
6 |  | Cc1ccc(-c2c(C)nn3cnnc3c2CCC(C)(C)C)c(C)c1 [Example 15] |  | 3 | 20
7 |  | Cc1ccc(-c2c(C)nn3cnnc3c2CCC(C)(C)C)c(F)c1 [Example 12] | 3 | 3 | 
8 |  | Cc1cc(F)ccc1-c1c(C)nn2cnnc2c1CC(C)C [Example 2] | 15 | 0 | 
9 |  | CCC(C)C(C)c1c(-c2ccc(F)cc2C)c(C)nn2cnnc12 (mixture of isomers) [Example 16] | 20 |  | 
10 |  | CCC(C)C(C)c1c(-c2ccc(C)cc2F)c(C)nn2cnnc12 (single isomer, unassigned) [Example 20] |  |  | 5
11 |  | CCCC(C)c1c(-c2ccc(C)cc2C)c(C)nn2cnnc12 (racemic) [Example 14] |  |  | 20
12 |  | CCC(C)C(C)c1c(-c2ccc(C)cc2F)c(C)nn2cnnc12 (single isomer, unassigned) [Example 22] |  |  | 7
13 | 103 to 105 | Cc1nn2ncnc2c(CC(C)C)c1-c1ccc(F)cc1F [Example 38, 7-(2,4-Difluorophenyl)-8-isobutyl-6-methyl-[1,2,4]triazolo[1,5-b]pyridazine] |  |  | 
14 |  | CCCCc1c(-c2ccc(C)cc2F)c(C)nn2cnnc12 [Example 5] |  | 0 | 
15 |  | Cc1ccc(-c2c(C)nn3cnnc3c2C2CCCCC2)c(C)c1 [Example 9] |  | 20 | 
16 |  | CCCC(C)c1c(-c2ccc(C)cc2F)c(C)nn2cnnc12 (single isomer, unassigned) [Example 19] |  |  | 20
17 |  | Cc1nn2cnnc2c(C2CCCCC2)c1-c1ccc(F)cc1F [Example 8] | 0 | 0 | 
18 |  | Cc1cc(F)ccc1-c1c(C)nn2cnnc2c1C1CCCCC1 [Example 10] |  | 0 | 
19 |  | Cc1nn2cnnc2c(CC(C)C)c1-c1ccccc1 [Example 1, 7-Phenyl-8-isobutyl-6-methyl-[1,2,4]triazolo[4,3-b]pyridazine] | 10 | 20 | 
20 |  | CCCC(C)c1c(-c2ccc(F)cc2F)c(C)nn2cnnc12 (single isomer, unassigned) [Example 21] |  | 3 | 3
21 |  | Cc1nn2cnnc2c(CCC(C)(C)C)c1-c1ccc(F)cc1F [Example 11] | 20 | 0 | 
22 |  | CCCC(C)c1c(-c2ccc(F)cc2C)c(C)nn2cnnc12 (racemic) [Example 13] | 10 |  | 
23 |  | CC1CCN(c2c(-c3c(F)cccc3Cl)c(Cl)nc3nnnn23)CC1 [Example 23, 5-Chloro-6-(2-chloro-6-fluorophenyl)-7-(4-methylpiperidin-1-yl)-tetrazolo[1,5-a]pyrimidine] |  |  | 15
24 |  | CCCCc1c(-c2ccc(F)cc2F)c(C)nn2cnnc12 [Example 4] | 10 | 0 | 
